Test results from PubChem BioAssay AID1963442 (Molecular Pharmacology Branch, DTP, NCI, 2024).

System: MPNST complex spheroid with HUVEC/MSC, growth, % test/control
Experiment: Anticancer human tumor MPNST cell line growth inhibition [Asc];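 also: compounds left on spheroids for seven days before reading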
Details: for IC50: curve of first compound; for viability, T/C: stronger effect = lower value
Summary of the method: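 Tumor cells were grown as complex spheroids with human endothelial cells (HUVEC) and human mesenchymal stem cells as stroma. Agents were tested alone and in combination, in half-log steps down from the clinical Cmax, or from 10 microM where Cmax was unknown.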

[1] = second compound 0.00316 µM, first compound 0.00316 µM
[2] = second compound 0.00316 µM, first compound 0.01 µM
[3] = second compound 0.00316 µM, first compound 0.0316 µM
[4] = second compound 0.00316 µM, first compound 0.1 µM
[5] = second compound 0.01 µM, first compound 0.00316 µM
[6] = second compound 0.01 µM, first compound 0.01 µM
[7] = second compound 0.01 µM, first compound 0.0316 µM
[8] = second compound 0.01 µM, first compound 0.1 µM
[9] = second compound 0.0316 µM, first compound 0.00316 µM
[10] = second compound 0.0316 µM, first compound 0.01 µM
[11] = second compound 0.0316 µM, first compound 0.0316 µM
[12] = second compound 0.0316 µM, first compound 0.1 µM
[13] = second compound 0.1 µM, first compound 0.00316 µM
[14] = second compound 0.1 µM, first compound 0.01 µM
[15] = second compound 0.1 µM, first compound 0.0316 µM
[16] = second compound 0.1 µM, first compound 0.1 µM
[17] = second compound 0.316 µM, first compound 0.00316 µM
[18] = second compound 0.316 µM, first compound 0.01 µM
[19] = second compound 0.316 µM, first compound 0.0316 µM
[20] = second compound 0.316 µM, first compound 0.1 µM
[21] = second compound 1 µM, first compound 0.00316 µM
[22] = second compound 1 µM, first compound 0.01 µM
[23] = second compound 1 µM, first compound 0.0316 µM
[24] = second compound 1 µM, first compound 0.1 µM

COc1c(OCCCN2CCOCC2)ccc2c3n(c(=NC(=O)c4cnc(N)nc4)nc12)CCN3 + CNC(C)C(=O)NC1CN(S(=O)(=O)c2cccc(S(=O)(=O)N3CCC4CCC(C(=O)NC(c5ccccc5)c5ccccc5)N4C(=O)C(NC(=O)C(C)NC)C3)c2)CCC2CCC(C(=O)NC(c3ccccc3)c3ccccc3)N2C1=O
IC50 (second compound 0.00316 µM): 17.1 nM | IC50 (second compound 0.01 µM): 29.4 nM | IC50 (second compound 0.0316 µM): 24.6 nM | IC50 (second compound 0.1 µM): 15.6 nM | IC50 (second compound 0.316 µM): 13.2 nM | IC50 (second compound 1 µM): 10 nM | viability, T/C [1]: 89.4% | viability, T/C [2]: 66.3% | viability, T/C [3]: 28.6% | viability, T/C [4]: 24.9% | viability, T/C (second compound 0.00316 µM, first compound 0.316 µM): 9.54% | viability, T/C (second compound 0.00316 µM, first compound 1 µM): 5.55% | viability, T/C [5]: 81.5% | viability, T/C [6]: 71.1% | viability, T/C [7]: 49.9% | viability, T/C [8]: 18.6% | viability, T/C (second compound 0.01 µM, first compound 0.316 µM): 10.2% | viability, T/C (second compound 0.01 µM, first compound 1 µM): 5.07% | viability, T/C [9]: 104% | viability, T/C [10]: 61.6% | viability, T/C [11]: 57.1% | viability, T/C [12]: 19.4% | viability, T/C (second compound 0.0316 µM, first compound 0.316 µM): 9.82% | viability, T/C (second compound 0.0316 µM, first compound 1 µM): 4.9% | viability, T/C [13]: 90.1% | viability, T/C [14]: 59.8% | viability, T/C [15]: 32.2% | viability, T/C [16]: 25.8% | viability, T/C (second compound 0.1 µM, first compound 0.316 µM): 13.8% | viability, T/C (second compound 0.1 µM, first compound 1 µM): 5.12% | viability, T/C [17]: 78.7% | viability, T/C [18]: 52.2% | viability, T/C [19]: 39.3% | viability, T/C [20]: 19.8% | viability, T/C (second compound 0.316 µM, first compound 0.316 µM): 11.1% | viability, T/C (second compound 0.316 µM, first compound 1 µM): 5.92% | viability, T/C [21]: 65.7% | viability, T/C [22]: 51% | viability, T/C [23]: 32% | viability, T/C [24]: 21.2% | viability, T/C (second compound 1 µM, first compound 0.316 µM): 10.2% | viability, T/C (second compound 1 µM, first compound 1 µM): 5.66%

NC(=O)C(=Cn1cnc(-c2cc(C(F)(F)F)cc(C(F)(F)F)c2)n1)c1cncnc1 + CNC(C)C(=O)NC1CN(S(=O)(=O)c2cccc(S(=O)(=O)N3CCC4CCC(C(=O)NC(c5ccccc5)c5ccccc5)N4C(=O)C(NC(=O)C(C)NC)C3)c2)CCC2CCC(C(=O)NC(c3ccccc3)c3ccccc3)N2C1=O
IC50 (second compound 0.00316 µM): 11.6 nM | IC50 (second compound 0.01 µM): 54.6 nM | IC50 (second compound 0.0316 µM): 163 nM | IC50 (second compound 0.1 µM): 52.7 nM | IC50 (second compound 0.316 µM): 18.1 nM | IC50 (second compound 1 µM): 69.8 nM | viability, T/C (second compound 0.00316 µM, first compound 0.000949 µM): 68.7% | viability, T/C (second compound 0.00316 µM, first compound 0.003 µM): 65% | viability, T/C (second compound 0.00316 µM, first compound 0.00949 µM): 49.3% | viability, T/C (second compound 0.00316 µM, first compound 0.03 µM): 43.9% | viability, T/C (second compound 0.00316 µM, first compound 0.0949 µM): 28% | viability, T/C (second compound 0.00316 µM, first compound 0.3 µM): 30.8% | viability, T/C (second compound 0.01 µM, first compound 0.000949 µM): 78.4% | viability, T/C (second compound 0.01 µM, first compound 0.003 µM): 73% | viability, T/C (second compound 0.01 µM, first compound 0.00949 µM): 84.1% | viability, T/C (second compound 0.01 µM, first compound 0.03 µM): 66.3% | viability, T/C (second compound 0.01 µM, first compound 0.0949 µM): 34.6% | viability, T/C (second compound 0.01 µM, first compound 0.3 µM): 35.3% | viability, T/C (second compound 0.0316 µM, first compound 0.000949 µM): 58.5% | viability, T/C (second compound 0.0316 µM, first compound 0.003 µM): 72% | viability, T/C (second compound 0.0316 µM, first compound 0.00949 µM): 70.5% | viability, T/C (second compound 0.0316 µM, first compound 0.03 µM): 82.1% | viability, T/C (second compound 0.0316 µM, first compound 0.0949 µM): 59.2% | viability, T/C (second compound 0.0316 µM, first compound 0.3 µM): 34.9% | viability, T/C (second compound 0.1 µM, first compound 0.000949 µM): 101% | viability, T/C (second compound 0.1 µM, first compound 0.003 µM): 80.7% | viability, T/C (second compound 0.1 µM, first compound 0.00949 µM): 103% | viability, T/C (second compound 0.1 µM, first compound 0.03 µM): 62.3% | viability, T/C (second compound 0.1 µM, first compound 0.0949 µM): 37.5% | viability, T/C (second compound 0.1 µM, first compound 0.3 µM): 36.9% | viability, T/C (second compound 0.316 µM, first compound 0.000949 µM): 72.6% | viability, T/C (second compound 0.316 µM, first compound 0.003 µM): 49.9% | viability, T/C (second compound 0.316 µM, first compound 0.00949 µM): 60.5% | viability, T/C (second compound 0.316 µM, first compound 0.03 µM): 46% | viability, T/C (second compound 0.316 µM, first compound 0.0949 µM): 43.7% | viability, T/C (second compound 0.316 µM, first compound 0.3 µM): 34.4% | viability, T/C (second compound 1 µM, first compound 0.000949 µM): 63.2% | viability, T/C (second compound 1 µM, first compound 0.003 µM): 59% | viability, T/C (second compound 1 µM, first compound 0.00949 µM): 66.2% | viability, T/C (second compound 1 µM, first compound 0.03 µM): 55.6% | viability, T/C (second compound 1 µM, first compound 0.0949 µM): 47.8% | viability, T/C (second compound 1 µM, first compound 0.3 µM): 36%

NC1CCC(NC2CC2c2ccccc2)CC1 (stereo unspecified) + CNC(C)C(=O)NC1CN(S(=O)(=O)c2cccc(S(=O)(=O)N3CCC4CCC(C(=O)NC(c5ccccc5)c5ccccc5)N4C(=O)C(NC(=O)C(C)NC)C3)c2)CCC2CCC(C(=O)NC(c3ccccc3)c3ccccc3)N2C1=O
IC50 (second compound 0.00316 µM): > 100 nM | IC50 (second compound 0.01 µM): 83.9 nM | IC50 (second compound 0.0316 µM): > 100 nM | IC50 (second compound 0.1 µM): > 100 nM | IC50 (second compound 0.316 µM): 95.3 nM | IC50 (second compound 1 µM): > 100 nM | viability, T/C (second compound 0.00316 µM, first compound 0.000316 µM): 65.4% | viability, T/C (second compound 0.00316 µM, first compound 0.001 µM): 91.4% | viability, T/C [1]: 51.1% | viability, T/C [2]: 99.5% | viability, T/C [3]: 55% | viability, T/C [4]: 52.7% | viability, T/C (second compound 0.01 µM, first compound 0.000316 µM): 72.2% | viability, T/C (second compound 0.01 µM, first compound 0.001 µM): 74.9% | viability, T/C [5]: 79.5% | viability, T/C [6]: 84.7% | viability, T/C [7]: 62.6% | viability, T/C [8]: 47.7% | viability, T/C (second compound 0.0316 µM, first compound 0.000316 µM): 88.5% | viability, T/C (second compound 0.0316 µM, first compound 0.001 µM): 63.8% | viability, T/C [9]: 70.4% | viability, T/C [10]: 81.8% | viability, T/C [11]: 61.8% | viability, T/C [12]: 61.6% | viability, T/C (second compound 0.1 µM, first compound 0.000316 µM): 94.8% | viability, T/C (second compound 0.1 µM, first compound 0.001 µM): 79.1% | viability, T/C [13]: 87.3% | viability, T/C [14]: 61.1% | viability, T/C [15]: 69.5% | viability, T/C [16]: 54.3% | viability, T/C (second compound 0.316 µM, first compound 0.000316 µM): 83.3% | viability, T/C (second compound 0.316 µM, first compound 0.001 µM): 77.2% | viability, T/C [17]: 69.3% | viability, T/C [18]: 99.6% | viability, T/C [19]: 79.6% | viability, T/C [20]: 48.7% | viability, T/C (second compound 1 µM, first compound 0.000316 µM): 92.9% | viability, T/C (second compound 1 µM, first compound 0.001 µM): 59.2% | viability, T/C [21]: 69.1% | viability, T/C [22]: 63.3% | viability, T/C [23]: 85.2% | viability, T/C [24]: 55.7%
